# Experimental data from patent US20160318957A1, “CRYSTAL (1) OF PYRAZINO[2,1-c][1,2,4]TRIAZINE COMPOUND” (PRISM PHARMA CO., LTD., priority 2013, published 2016).
# What was measured:
# Type in all cases: physicochemical
# [1] = Evaluation of solid stability (impurity content by HPLC after preservation); conditions: for impurity content (%): HPLC 226 nm
# Method: The solid obtained in Example 1 or Comparative Example 1 was preserved for 3 months under the following 3 kinds of preservation conditions. The absorbance at wavelength 226 nm was measured by high performance liquid chromatography (HPLC), and the content of impurity contained in the crystal was measured every other month.
# From the peak area of the obtained chromatogram, a value obtained by dividing the total area of respective peaks other than the peak showing compound 1, by the total area of all the obtained peaks, from the peaks contained in the above-mentioned solid, was taken as impurity content (%), and is shown in Table 5.
# [2] = Evaluation of thermal stability by X-ray-DSC
# Method: Using X-ray diffraction-differential scanning simultaneous calorimetry apparatus (X-ray-DSC), whether the crystal form of crystal A obtained in Example 1 changes upon heating was observed.
# When the temperature was around 90° C., the weight of crystal A decreased, and the powder X-ray diffraction pattern changed clearly.
# [3] = Hygroscopicity evaluation by dynamic water adsorption measuring apparatus; conditions: 25° C., relative humidity range of 35-75% RH
# Method: The hygroscopicity of crystal A obtained in Example 1 was evaluated by a dynamic water adsorption measuring apparatus. A sample mounting part of the apparatus was maintained at 25° C., and the relative humidity (RH) was set stepwisely within the range of 5-95% RH. The humidity was controlled by changing the relative flow of 0% RH dry nitrogen and 100% RH humidified nitrogen. The sample weight was confirmed at for 2 min intervals by a micro balance, and the humidity was sequentially changed at the time point when the weight shift range for 5 min was below 0.01%.
# [4] = Heating of crystal in an oven; conditions: oven at 50° C. overnight
# Source text: First, an amorphous form of compound 1 is explained. Compound 1 can be produced by synthesize according to the method described in patent document 1.
# [5] = preserved at 40° C./75% RH, 1 month later
# [6] = preserved at 40° C./75% RH, 2 months later
# [7] = preserved at 40° C./75% RH, 3 months later
# [8] = preserved at 60° C., 1 month later
# [9] = preserved at 60° C., 2 months later
# [10] = preserved at 60° C., 3 months later
# [11] = preserved at −20° C., 1 month later
# [12] = preserved at −20° C., 2 months later
# [13] = preserved at −20° C., 3 months later
# [14] = heated from 40° C. to 100° C. at 1° C./min
smiles,measurement,setting,value
"C[C@H]1C2N(C(=O)CN(C)N2C(=O)NCc2ccccc2)[C@@H](Cc2ccc(OP(=O)(O)O)cc2)C(=O)N1Cc1cccc2cccnc12 (stereo partly drawn) [Comparative Example 1, 4-(((6S,9S)-1-(benzylcarbamoyl)-2,9-dimethyl-4,7-dioxo-8-(quinolin-8-ylmethyl)octahydro-1H-pyrazino[2,1-c][1,2,4]triazin-6-yl)methyl)phenyl dihydrogen phosphate]",increase in the impurity content as compared to preservation at −20° C.,"[1]; 40° C., 75% RH, 3 months later",about 4%
same,increase in the impurity content as compared to preservation at −20° C.,"[1]; 60° C., 3 months later",not less than 1.1%
same,impurity content (%),[1]; [5],3.35%
same,impurity content (%),[1]; [6],4.62%
same,impurity content (%),[1]; [7],6.51%
same,impurity content (%),[1]; [8],3.10%
same,impurity content (%),[1]; [9],3.41%
same,impurity content (%),[1]; [10],3.68%
same,impurity content (%),[1]; [11],2.46%
same,impurity content (%),[1]; [12],2.60%
same,impurity content (%),[1]; [13],2.57%
"C[C@H]1C2N(C(=O)CN(C)N2C(=O)NCc2ccccc2)[C@@H](Cc2ccc(OP(=O)(O)O)cc2)C(=O)N1Cc1cccc2cccnc12 (stereo partly drawn) [Example 1, 4-(((6S,9S)-1-(benzylcarbamoyl)-2,9-dimethyl-4,7-dioxo-8-(quinolin-8-ylmethyl)octahydro-1H-pyrazino[2,1-c][1,2,4]triazin-6-yl)methyl)phenyl dihydrogen phosphate]",powder X-ray diffraction pattern at the endothermic peak (desorption of hydrated water),"[2]; 43° C.-48° C., heated at 1° C./min",did not change
same,temperature at which weight decreased and powder X-ray diffraction pattern changed clearly,[2]; [14],around 90 °C
same,thermal stability,[2]; [14],thermally stable
same,hygroscopicity,[3],low hygroscopicity
same,weight change at the maximum,[3],about 2.5%
same,increase in the impurity content as compared to preservation at −20° C.,"[1]; 40° C., 75% RH, 3 months later",about 1.6%
same,increase in the impurity content as compared to preservation at −20° C.,"[1]; 60° C., 3 months later",not more than 0.5%
same,solid stability compared with amorphous form,"[1]; high temperature conditions and high humidity conditions, 3 months",more stable than the amorphous form of Comparative Example 1
same,impurity content (%),[1]; [5],0.65%
same,impurity content (%),[1]; [6],1.02%
same,impurity content (%),[1]; [7],1.80%
same,impurity content (%),[1]; [8],0.53%
same,impurity content (%),[1]; [9],0.59%
same,impurity content (%),[1]; [10],0.72%
same,impurity content (%),[1]; [11],0.24%
same,impurity content (%),[1]; [12],0.17%
same,impurity content (%),[1]; [13],0.24%
"C[C@H]1C2N(C(=O)CN(C)N2C(=O)NCc2ccccc2)[C@@H](Cc2ccc(OP(=O)(O)O)cc2)C(=O)N1Cc1cccc2cccnc12 (stereo partly drawn) [Example 2, 4-(((6S,9S)-1-(benzylcarbamoyl)-2,9-dimethyl-4,7-dioxo-8-(quinolin-8-ylmethyl)octahydro-1H-pyrazino[2,1-c][1,2,4]triazin-6-yl)methyl)phenyl dihydrogen phosphate]",change of solid form on heating,[4],changes into an amorphous form
